Measurements: ChEMBL document CHEMBL1201862, “PubChem BioAssay data set” (2004)
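Tested at 5 concentrations; 48 h exposure; 96-well plates; endpoints linearly interpolated, else capped at highest concentration. GI50 marks 50% less growth.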 The source made the active and inactive calls. Rule as the data show it: active = GI50 up to about 1.1 µM and inactive = higher.

How the values were obtained:
Assay in all cases: NCI-60 cell line screen, 48 h
[1] = system: SR
[2] = system: UACC-62
[3] = system: RPMI-8226
[4] = system: SN12C
[5] = system: COLO 205
[6] = system: HCT-116
[7] = system: OVCAR-4
[8] = system: OVCAR-8
[9] = system: CCRF-CEM
[10] = system: SNB-78
[11] = system: 786-0
[12] = system: MOLT-4
[13] = system: UO-31
[14] = system: LOX IMVI
[15] = system: K562
[16] = system: HL-60
[17] = system: LXFL 529
[18] = system: SNB-19
[19] = system: UACC-257
[20] = system: CAKI-1
[21] = system: HCC 2998
[22] = system: NCI-H460
[23] = system: ACHN
[24] = system: HOP-92
[25] = system: SK-OV-3
[26] = system: SK-MEL-2
[27] = system: HCT-15
[28] = system: M14
[29] = system: RXF 393
[30] = system: U-251
[31] = system: SK-MEL-5
[32] = system: SF-539
[33] = system: HT-29
[34] = system: Malme-3M
[35] = system: TK-10
[36] = system: HOP-62
[37] = system: OVCAR-3
[38] = system: KM12
[39] = system: OVCAR-5
[40] = system: NCI-H522
[41] = system: SK-MEL-28
[42] = system: EKVX
[43] = system: HOP-18
[44] = system: DLD-1
[45] = system: IGROV-1
[46] = system: NCI-H23
[47] = system: NCI-H226
[48] = system: A549
[49] = system: SF-268
[50] = system: SW-620
[51] = system: DMS-273
[52] = system: SNB-75
[53] = system: A498
[54] = system: KM-20L2
[55] = system: RXF 631
[56] = system: SF-295
[57] = system: DMS-114
[58] = system: MDA-MB-435
[59] = system: PC-3
[60] = system: M19-MEL
[61] = system: MCF7
[62] = system: BT-549
[63] = system: NCI/ADR-RES
[64] = system: MDA-N
[65] = system: MDA-MB-231
[66] = system: Hs-578T
[67] = system: T47D
[68] = system: DU-145

## C[C@H]1C(=O)CC[C@]2(C)CCC(C(C)(C)O)CC12O (some centres undefined)
[1]
  GI50: > 100 µM (inactive)
[2]
  GI50: > 100 µM (inactive)
[3]
  GI50: > 100 µM (inactive)
[4]
  GI50: > 100 µM (inactive)
[5]
  GI50: > 100 µM (inactive)
[6]
  GI50: > 100 µM (inactive)
[7]
  GI50: > 100 µM (inactive)
[8]
  GI50: > 100 µM (inactive)
[9]
  GI50: > 100 µM (inactive)
[10]
  GI50: > 100 µM (inactive)
[11]
  GI50: > 100 µM (inactive)
[12]
  GI50: > 100 µM (inactive)
[13]
  GI50: > 100 µM (inactive)
[14]
  GI50: > 100 µM (inactive)
[15]
  GI50: > 100 µM (inactive)
[16]
  GI50: > 100 µM (inactive)
[17]
  GI50: > 100 µM (inactive)
[18]
  GI50: > 100 µM (inactive)
[19]
  GI50: > 100 µM (inactive)
[20]
  GI50: > 100 µM (inactive)
[21]
  GI50: > 100 µM (inactive)
[22]
  GI50: > 100 µM (inactive)
[23]
  GI50: > 100 µM (inactive)
[24]
  GI50: > 100 µM (inactive)
[25]
  GI50: > 100 µM (inactive)
[26]
  GI50: > 100 µM (inactive)
[27]
  GI50: > 100 µM
[28]
  GI50: > 100 µM (inactive)
[29]
  GI50: > 100 µM (inactive)
[30]
  GI50: > 100 µM (inactive)
[31]
  GI50: > 100 µM (inactive)
[32]
  GI50: > 100 µM (inactive)
[33]
  GI50: > 100 µM (inactive)
[34]
  GI50: > 100 µM (inactive)
[35]
  GI50: > 100 µM (inactive)
[36]
  GI50: > 100 µM (inactive)
[37]
  GI50: > 100 µM (inactive)
[38]
  GI50: > 100 µM (inactive)
[39]
  GI50: > 100 µM (inactive)
[40]
  GI50: > 100 µM (inactive)
[41]
  GI50: > 100 µM (inactive)
[42]
  GI50: > 100 µM (inactive)
[43]
  GI50: > 100 µM (inactive)
[44]
  GI50: > 100 µM (inactive)
[45]
  GI50: > 100 µM (inactive)
[46]
  GI50: > 100 µM (inactive)
[47]
  GI50: > 100 µM (inactive)
[48]
  GI50: > 100 µM (inactive)
[49]
  GI50: > 100 µM (inactive)
[50]
  GI50: > 100 µM (inactive)
[51]
  GI50: > 100 µM (inactive)
[52]
  GI50: 12.8 µM (inactive)
[53]
  GI50: > 100 µM (inactive)
[54]
  GI50: > 100 µM (inactive)
[55]
  GI50: > 100 µM (inactive)
[56]
  GI50: > 100 µM (inactive)
[57]
  GI50: > 100 µM (inactive)

## CC1=C2C(=O)[C@H]3[C@@H](CC=C4C[C@@H](O)CC[C@@]43C)[C@@H]2CC[C@]12O[C@@H]1C[C@H](C)CN[C@H]1[C@H]2C [JERVINE]
[2]
  GI50: > 53.7 µM (inactive)
[58]
  GI50: > 100 µM (inactive)
[59]
  GI50: > 100 µM (inactive)
[60]
  GI50: 29.4 µM (inactive)
[3]
  GI50: > 100 µM (inactive)
[4]
  GI50: > 43.4 µM (inactive)
[5]
  GI50: > 75.5 µM (inactive)
[6]
  GI50: > 46 µM (inactive)
[7]
  GI50: > 44.5 µM (inactive)
[8]
  GI50: > 47.1 µM (inactive)
[9]
  GI50: > 63.4 µM (inactive)
[10]
  GI50: 19.2 µM (inactive)
[61]
  GI50: > 100 µM (inactive)
[11]
  GI50: > 41.9 µM (inactive)
[12]
  GI50: > 82.4 µM (inactive)
[13]
  GI50: > 40.1 µM (inactive)
[14]
  GI50: > 41.1 µM (inactive)
[15]
  GI50: > 61.9 µM (inactive)
[16]
  GI50: > 44.2 µM (inactive)
[17]
  GI50: 18.4 µM (inactive)
[18]
  GI50: > 41.7 µM (inactive)
[19]
  GI50: > 49.3 µM (inactive)
[20]
  GI50: > 40.8 µM (inactive)
[62]
  GI50: > 100 µM (inactive)
[63]
  GI50: > 100 µM (inactive)
[21]
  GI50: > 54 µM (inactive)
[22]
  GI50: > 44.8 µM (inactive)
[23]
  GI50: > 41.3 µM (inactive)
[24]
  GI50: 11.9 µM (inactive)
[64]
  GI50: > 100 µM (inactive)
[25]
  GI50: > 40.6 µM (inactive)
[65]
  GI50: > 100 µM (inactive)
[26]
  GI50: > 50.7 µM (inactive)
[27]
  GI50: > 50.8 µM
[28]
  GI50: > 41.7 µM (inactive)
[29]
  GI50: > 38.5 µM (inactive)
[30]
  GI50: > 41.4 µM (inactive)
[31]
  GI50: > 39.8 µM (inactive)
[32]
  GI50: > 47.9 µM (inactive)
[33]
  GI50: > 55.2 µM (inactive)
[34]
  GI50: > 50.4 µM (inactive)
[35]
  GI50: > 37.2 µM (inactive)
[36]
  GI50: > 39.5 µM (inactive)
[66]
  GI50: > 100 µM (inactive)
[37]
  GI50: > 40.6 µM (inactive)
[67]
  GI50: > 100 µM (inactive)
[38]
  GI50: > 50.4 µM (inactive)
[39]
  GI50: > 100 µM (inactive)
[40]
  GI50: > 42.2 µM (inactive)
[41]
  GI50: > 49.3 µM (inactive)
[42]
  GI50: > 45.9 µM (inactive)
[43]
  GI50: 17.1 µM (inactive)
[44]
  GI50: 29.9 µM (inactive)
[45]
  GI50: > 54.7 µM (inactive)
[46]
  GI50: > 42.3 µM (inactive)
[47]
  GI50: > 43.8 µM (inactive)
[48]
  GI50: > 43 µM (inactive)
[49]
  GI50: > 46.6 µM (inactive)
[50]
  GI50: > 49.4 µM (inactive)
[68]
  GI50: > 100 µM (inactive)
[51]
  GI50: 22 µM (inactive)
[52]
  GI50: > 36.4 µM (inactive)
[53]
  GI50: > 41.2 µM (inactive)
[54]
  GI50: 28.9 µM (inactive)
[55]
  GI50: 23.2 µM (inactive)
[56]
  GI50: > 44.1 µM (inactive)
[57]
  GI50: 18.9 µM (inactive)
